Measured values as given in patent US20170183297A1, “OMEGA-3 ANALOGUES” (The University of Sydney, priority 2014, published 2017).

Experiments:
[1] = tested on: human MDA-MB-231 breast cancer cell xenografts; assay: Dose-response effects on breast tumour growth in nude mice with MDA-MB-231 xenografts (37 days IP); type: in vivo, mouse (nu/nu Balb/c, female); conditions: for Average tumour volumes / Final tumour weight at day 37: mean ± SEM, n = 5; for tumour suppression (overall statement): all doses (2.5, 10, 40 mg/kg)
Experimental: Dose-response effects of compounds CP01 and CP03 on breast tumour growth in nude mice with human MDA-MB-231 breast cancer cell xenografts (subcutaneous injection in mammary fat pad)
5 weeks old when ordered, 6 weeks old when xenografted.
human MDA-MB-231 cells, 4×10^5 cells/100 μL (Matrigel:PBS 1:1)/mouse, subcutaneous injection into the third mammary fat pad.
7 groups, 5 mice in each group. After the cell injection, 7 cages were randomly divided into 7 groups following the average mouse body weight of mice each cage. • Control • CP01-2.5 mg/kg • CP01-10 mg/kg • CP01-40 mg/kg • CP03-2.5 mg/kg • CP03-10 mg/kg • CP03-40 mg/kg
Solid CP01 or CP03 powder was dissolved in DMSO at 40° C. to a final concentration of 400 mg/mL.
(§1) After 4 days of cancer cell xenografting, IP administration of compounds CP01 or CP03 was started (2.5, 10 and 40 mg/kg). Compounds were diluted in corn oil containing 4% DMSO. Injection volume was 50 μL each mouse with a 20-gram body weight. IP injections were administered once a day for six days per week for a total of 37 days in duration. In a further study (see below), different doses of CP01, CP03 and CP05 were administered to nude mice carrying MDA-MB-231 xenografts (FIGS. 11, 12 and 13, respectively). The endpoint in this experiment was tumour volume and the experiments were conducted for 32 days.
(§2) Body weights were recorded six days per week and tumour sizes were measured with a pair of caliper, every three to four days.

[2] = Mouse body weight growth in control and treated groups; type: in vivo; conditions: IP 2.5, 10 and 40 mg/kg, 37 days; for body weight growth of treated mice compared with control group: once a day six days per week
Experimental: The weight range at the start of IP treatments was from 13.1 g to 18.1 g at Day 1 and increased to a range of 17.1 g to 21.3 g at Day 37.
as §1, §2

MDA-MB-231 cells = assay: Matrigel migration assay; type: cell-based, Human; conditions: 1, 5 and 10 μM, 24 h; P<0.01; FIG. 4
Experimental: Human MDA-MB-231, MDA-MB-468 and T-47D breast cancer cells were obtained from the American Type Culture Collection (ATCC; Manassas, Va., USA). Cells were plated on 96-well microplates at a density of 1×10^4 cells per well for MTT, ATP, Caspase and JC-1 assays. Cells were maintained in Dulbecco's Modified Eagle's Medium (DMEM; Invitrogen, Carlsbad, Calif., USA) supplemented with 10% (w/v) fetal bovine serum (Hyclone, Salt Lake City, Utah, USA), 100 U/mL penicillin, and 100 μg/mL streptomycin (Invitrogen). All of the cells were incubated at 37° C. in a humidified atmosphere of 95% air and 5% CO2. Confluent cells (80-90%) were washed in phosphate-buffered saline, harvested using Trypsin/EDTA, and counted using trypan blue exclusion in a Countess Automated Cell Counter (Invitrogen) before passaging or use in assays.
MDA-MB-231 cells were trypsinized and resuspended in serum-free DMEM media (3.5×10^6 cells/mL). The cell suspension was mixed 1:1 with Matrigel solution (Bio Scientific; Kirrawee, NSW, Australia). Aliquots (20 μL containing 3.5×10^4 cells) were placed into 6-well tissue-culture dishes to form well-defined droplets and incubated at 37° C. for 5 min to enable semi-solidification. Migration media was freshly made as DMEM containing 20% fetal bovine serum, epidermal growth factor 10 pg/mL, hydrocortisone 0.4 ng/mL, vascular endothelial growth factor (VEGF, 1 pg/mL), basic fibroblast growth factor (bFGF, 20 pg/mL), insulin-like growth factor-1 (40 pg/mL), ascorbic acid (2 ng/mL) and heparin (45 ng/mL). Compounds were added in migration media (3 mL/well) and plates were then incubated for 24 h. Cells that migrated out of droplets were scored using phase-contrast microscopy and digital image analysis (Olympus).

SMILES	Average tumour volumes ([1]; 2.5 mg/kg IP, Day 8) [mm^3]	Average tumour volumes ([1]; 2.5 mg/kg IP, Day 11)	Average tumour volumes ([1]; 2.5 mg/kg IP, Day 15) [mm^3]	Average tumour volumes ([1]; 2.5 mg/kg IP, Day 18) [mm^3]	Average tumour volumes ([1]; 2.5 mg/kg IP, Day 21) [mm^3]	Average tumour volumes ([1]; 2.5 mg/kg IP, Day 25) [mm^3]	Average tumour volumes ([1]; 2.5 mg/kg IP, Day 29) [mm^3]	Average tumour volumes ([1]; 2.5 mg/kg IP, Day 32) [mm^3]	Average tumour volumes ([1]; 2.5 mg/kg IP, Day 35)	Average tumour volumes ([1]; 2.5 mg/kg IP, Day 37) [mm^3]	Final tumour weight at day 37 ([1]; 2.5 mg/kg IP) [g]	Average tumour volumes ([1]; 10 mg/kg IP, Day 8) [mm^3]	Average tumour volumes ([1]; 10 mg/kg IP, Day 11) [mm^3]	Average tumour volumes ([1]; 10 mg/kg IP, Day 15) [mm^3]	Average tumour volumes ([1]; 10 mg/kg IP, Day 18) [mm^3]	Average tumour volumes ([1]; 10 mg/kg IP, Day 21) [mm^3]	Average tumour volumes ([1]; 10 mg/kg IP, Day 25) [mm^3]	Average tumour volumes ([1]; 10 mg/kg IP, Day 29) [mm^3]	Average tumour volumes ([1]; 10 mg/kg IP, Day 32) [mm^3]	migration of MDA-MB-231 cells out of matrigel droplets (MDA-MB-231 cells)	also measured
O=C(O)CCCCCCCCCCCSCCCNC(=O)Nc1ccc(Cl)c(C(F)(F)F)c1 [CP01, 12-{[3-({[4-Chloro-3-(trifluoromethyl)phenyl]carbamoyl}amino)propyl]sulfanyl}dodecanoic acid]	12.5 ± 1.9	10.5 ± 1^ mm^3	10 ± 2.9	12.2 ± 3.2	16.9 ± 4.4	23.9 ± 6.1	29.3 ± 7.4	52.1 ± 15	67.7 ± 17.1 mm^3	78.7 ± 19.8	0.05 ± 0.01	15 ± 2.4	15.6 ± 1.8	16.5 ± 2.8	22 ± 4.5	26.4 ± 4.5	33.6 ± 6.2	45.2 ± 11.2	67.5 ± 19.3		Average tumour volumes ([1]; 10 mg/kg IP, Day 35): 85.7 ± 25.3 mm^3; Average tumour volumes ([1]; 10 mg/kg IP, Day 37): 116.5 ± 37.6 mm^3; Final tumour weight at day 37 ([1]; 10 mg/kg IP): 0.08 ± 0.03 g; Average tumour volumes ([1]; 40 mg/kg IP, Day 8): 11 ± 1.3 mm^3; Average tumour volumes ([1]; 40 mg/kg IP, Day 11): 13.6 ± 2^ mm^3; Average tumour volumes ([1]; 40 mg/kg IP, Day 15): 14.7 ± 0.7 mm^3; Average tumour volumes ([1]; 40 mg/kg IP, Day 18): 23.6 ± 2.7 mm^3; Average tumour volumes ([1]; 40 mg/kg IP, Day 21): 26.3 ± 6^ mm^3; Average tumour volumes ([1]; 40 mg/kg IP, Day 25): 35.9 ± 13.4 mm^3; Average tumour volumes ([1]; 40 mg/kg IP, Day 29): 47.8 ± 17^ mm^3; Average tumour volumes ([1]; 40 mg/kg IP, Day 32): 67.8 ± 26 mm^3; Average tumour volumes ([1]; 40 mg/kg IP, Day 35): 116.6 ± 40.7 mm^3; Average tumour volumes ([1]; 40 mg/kg IP, Day 37): 132.8 ± 50.9 mm^3; Final tumour weight at day 37 ([1]; 40 mg/kg IP): 0.11 ± 0.05 g; tumour suppression (overall statement) [1]: strong trends toward tumour suppression at all doses; reduction in tumour size (suppression of tumour growth) ([1]; dose 2.5 mg/kg): 59%; reduction in tumour size (suppression of tumour growth) ([1]; dose 10 mg/kg): 39%; reduction in tumour size (suppression of tumour growth) ([1]; dose 40 mg/kg): 30%; evidence of toxicity (from body weight) [2]: no evidence of toxicity; body weight growth of treated mice compared with control group [2]: no significant difference
Cc1ccc(NC(=O)NCCCSCCCCCCCCCCCC(=O)O)cc1 [CP02, 12-[(3-{[(4-Methylphenyl)carbamoyl]amino}propyl)sulfanyl]dodecanoic acid]																				all decreases significant	
O=C(O)CSCCCCCCCCCCCCCNC(=O)Nc1ccc(Cl)c(C(F)(F)F)c1 [CP03, {[13-({[4-Chloro-3-(trifluoromethyl)phenyl]carbamoyl}amino)tridecyl]sulfanyl}acetic acid]	8.8 ± 1.4	10.7 ± 1.3 mm^3	14.5 ± 0.9	18 ± 1.6	23 ± 2.8	29.5 ± 6	45.4 ± 9.5	60.9 ± 13.7	80.4 ± 21^ mm^3	106.7 ± 29.4	0.09 ± 0.03	11.3 ± 2.9	10.9 ± 1.5	16.5 ± 2.8	19.3 ± 2.1	17.1 ± 2.9	23.1 ± 5	29 ± 7.5	39.3 ± 12.9		Average tumour volumes ([1]; 10 mg/kg IP, Day 35): 50.3 ± 21.2 mm^3; Average tumour volumes ([1]; 10 mg/kg IP, Day 37): 67.3 ± 33.3 mm^3; Final tumour weight at day 37 ([1]; 10 mg/kg IP): 0.06 ± 0.03 g; Average tumour volumes ([1]; 40 mg/kg IP, Day 8): 13.4 ± 2.3 mm^3; Average tumour volumes ([1]; 40 mg/kg IP, Day 11): 12.5 ± 2^ mm^3; Average tumour volumes ([1]; 40 mg/kg IP, Day 15): 17.2 ± 1.9 mm^3; Average tumour volumes ([1]; 40 mg/kg IP, Day 18): 24.4 ± 5.5 mm^3; Average tumour volumes ([1]; 40 mg/kg IP, Day 21): 24 ± 5.2 mm^3; Average tumour volumes ([1]; 40 mg/kg IP, Day 25): 35.7 ± 10.7 mm^3; Average tumour volumes ([1]; 40 mg/kg IP, Day 29): 46.3 ± 16.7 mm^3; Average tumour volumes ([1]; 40 mg/kg IP, Day 32): 65.7 ± 23^ mm^3; Average tumour volumes ([1]; 40 mg/kg IP, Day 35): 96.1 ± 33.8 mm^3; Average tumour volumes ([1]; 40 mg/kg IP, Day 37): 118.9 ± 44.7 mm^3; Final tumour weight at day 37 ([1]; 40 mg/kg IP): 0.09 ± 0.04 g; tumour suppression (overall statement) [1]: strong trends toward tumour suppression at all doses; reduction in tumour size (suppression of tumour growth) ([1]; dose 2.5 mg/kg): 44%; reduction in tumour size (suppression of tumour growth) ([1]; dose 10 mg/kg): 65%; reduction in tumour size (suppression of tumour growth) ([1]; dose 40 mg/kg): 38%; evidence of toxicity (from body weight) [2]: no evidence of toxicity; body weight growth of treated mice compared with control group [2]: no significant difference
Cc1ccc(NC(=O)NCCCCCCCCCCCCCSCC(=O)O)cc1 [CP04]																				all decreases significant	
Cc1ccc(NC(=O)NCCCSCCCCCCCCCSCC(=O)O)cc1 [CP06, ({9-[(3-{[(4-Methylphenyl)carbamoyl]amino}propyl)sulfanyl]nonyl}sulfanyl)acetic acid]																				all decreases significant	
